In patent US20180170941A1 (priority 2016, published 2018):

Each compound was assayed against T1, α5β3γ2 GABAA receptors (Ltk cell membranes) (Homo sapiens, UniProt P18507+P31644) (assay: Binding activity of test compounds on GABAAR: inhibition of [3H]Ro15-1788 binding). Settings: not given.
T1 construct: membranes
Procedure: Tissue culture and Membrane Preparation: The binding was performed on Ltk cells stably expressing GABAA receptors: α1β1γ2, α2β3γ2, α3β3γ2 and α5β3γ2 (provided by Merck Co., NJ, USA). Cells were seeded in 100 mm culture plates in DMEM/F12 medium containing 10% serum and antibiotics in 5% CO2 and allowed to grow for 1-2 days. GABAAR expression was then induced by dexamethasone as follows: 0.5 μM for 1 day for α5 containing and 2μM for 3 days for α1, α2 and α3 containing GABAARs. After induction, cells were collected by scraping into Dulbecco's Phosphate buffered saline (DPBS, pH 7.4, Invitrogen, Carlsbad, Calif., USA) and centrifuged at 150×g for 10 min. The pellet was washed twice by re-suspension and centrifugation. The cell pellets from at least 5 different preps were combined, suspended in the binding assay buffer (50 mM KH2P4; 1 mM EDTA; 0.2 M KCl, pH 7.4) and membranes prepared by sonication (3-5 times, 30 sec) using Branson Sonifier 150 (G.Heinmann, Germany). Protein content was determined using BCA assay (Bio-Rad Labs, Reinach, Switzerland) with Bovine Serum Albumin (Sigma Aldrich, St. Louis, Mo., USA) as the standard. Aliquots were prepared and stored at −20° C. for further use in binding assays.
Ligand Binding: Saturation binding curves were obtained by incubating membranes with increasing concentrations (0.01-8 nM) of [^3H]Ro15-1788 (Flumazepil, 75-85 Ci/mmol, PerkinElmer, MA, USA), with nonspecific binding measured in the presence of 10 μM diazepam.
All binding assays were performed for 1 h at 4° C. in assay buffer. The total assay volume was 0.5 ml containing 0.2 mg/ml protein for α5 and 0.4 mg/ml for α1, α2, and α3 containing GABAAR membranes. Incubations were terminated by filtration through GF/B filters using a 24-Cell Harvestor (Brandel, Gaithersburg, Md., USA) followed by 3 washes with ice-cold assay buffer. Filters were transferred to scintillation vials, 5 ml scintillation liquid added, vortex-mixed and kept in dark. Next day, radioactivity was obtained using a scintillation counter (Beckman Coulter, Brea, Calif., USA). All assays were performed in triplicate.
Data Analyses: Saturation and inhibition curves were obtained using GraphPad Prism software (GraphPad Software, Inc., CA, USA).

T1 sequence (P31644 32-462): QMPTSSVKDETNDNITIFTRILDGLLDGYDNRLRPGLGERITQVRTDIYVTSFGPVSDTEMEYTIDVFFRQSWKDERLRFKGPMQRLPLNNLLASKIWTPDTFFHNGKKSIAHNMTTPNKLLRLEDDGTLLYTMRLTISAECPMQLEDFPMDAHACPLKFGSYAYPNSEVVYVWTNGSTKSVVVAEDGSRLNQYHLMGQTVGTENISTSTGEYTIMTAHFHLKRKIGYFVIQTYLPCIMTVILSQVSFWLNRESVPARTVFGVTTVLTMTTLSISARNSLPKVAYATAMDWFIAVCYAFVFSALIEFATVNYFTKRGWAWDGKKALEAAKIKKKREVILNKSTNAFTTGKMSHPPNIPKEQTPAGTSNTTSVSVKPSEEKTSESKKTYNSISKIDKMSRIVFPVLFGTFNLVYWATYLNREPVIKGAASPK
T1 sequence (P28472 26-473 partner): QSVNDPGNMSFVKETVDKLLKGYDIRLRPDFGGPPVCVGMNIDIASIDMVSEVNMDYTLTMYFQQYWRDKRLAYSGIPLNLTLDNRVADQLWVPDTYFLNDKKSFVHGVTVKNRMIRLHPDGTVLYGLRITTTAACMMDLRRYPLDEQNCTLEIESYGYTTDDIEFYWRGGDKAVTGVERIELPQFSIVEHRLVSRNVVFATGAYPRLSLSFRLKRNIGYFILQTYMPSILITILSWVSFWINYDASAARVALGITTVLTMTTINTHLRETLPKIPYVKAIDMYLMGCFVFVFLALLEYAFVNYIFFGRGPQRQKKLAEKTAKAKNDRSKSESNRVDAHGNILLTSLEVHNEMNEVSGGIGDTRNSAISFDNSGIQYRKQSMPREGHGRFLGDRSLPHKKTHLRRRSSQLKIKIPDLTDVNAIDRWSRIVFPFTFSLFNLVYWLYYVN
T1 sequence (P18507 40-475): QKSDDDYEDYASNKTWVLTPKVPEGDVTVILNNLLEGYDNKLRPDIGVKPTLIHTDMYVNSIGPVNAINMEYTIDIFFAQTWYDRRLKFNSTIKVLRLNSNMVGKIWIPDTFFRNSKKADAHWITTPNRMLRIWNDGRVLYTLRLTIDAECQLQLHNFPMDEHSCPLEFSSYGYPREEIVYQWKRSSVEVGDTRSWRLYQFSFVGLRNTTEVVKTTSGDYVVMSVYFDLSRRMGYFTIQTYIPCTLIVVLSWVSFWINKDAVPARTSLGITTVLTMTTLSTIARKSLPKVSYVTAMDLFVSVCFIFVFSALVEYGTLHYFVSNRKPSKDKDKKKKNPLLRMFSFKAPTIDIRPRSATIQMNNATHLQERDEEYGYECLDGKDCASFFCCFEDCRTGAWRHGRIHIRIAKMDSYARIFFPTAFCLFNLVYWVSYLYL

| Compound | Ki [nM] |
| --- | --- |
| COc1ccc2c(c1)-c1nnc(COc3ccccc3C(C)(C)C)n1Cc1c(C#N)ncn1-2 [Compound 192] | > 1000 |

Same assay, conditions: GABA α5 Binding Ki Values, inhibition of [3H]Ro15-1788 binding; reported as ranges

| Compound | Ki [nM] |
| --- | --- |
| COc1ccc2c(c1)-c1nnc(COc3ccc(F)cc3)n1Cc1c(C#N)ncn1-2 [Compound 191] | 100 to 1000 |
| CCOC(=O)c1ncn2c1Cc1c(COc3ccc(F)cc3)nnn1-c1cc(OC)ccc1-2 [Compound 10] | < 100 |
| COc1ccc2c(c1)-c1nnc(COc3cccnc3)n1Cc1c(Br)ncn1-2 [Compound 235] | < 100 |
| COc1ccc2c(c1)-n1nnc(CN3CCCCC3)c1Cc1c(C#N)ncn1-2 [Compound 251] | > 1000 |
| COc1ccc(C#Cc2ncn3c2Cc2cnnn2-c2cc(Cl)ccc2-3)cc1 [Compound 397] | < 100 |
| Cc1nnn2c1Cc1c(C3=N[C@H](c4ccccc4)CO3)ncn1-c1ccc(Cl)cc1-2 [Compound 377] | < 100 |
| COc1ccc2c(c1)-c1nnc(COc3ccccc3)n1Cc1c(-c3noc(C)n3)ncn1-2 [Compound 162] | < 100 |
| CC(C)[C@H]1COC(c2ncn3c2Cc2cnnn2-c2cc(Cl)ccc2-3)=N1 [Compound 363] | 100 to 1000 |
| COc1ccc2c(c1)-c1nnc(COc3cccc(F)c3)n1Cc1c(-c3noc(C(C)C)n3)ncn1-2 [Compound 179] | < 100 |
| N#Cc1ncn2c1Cc1c(COc3ccccc3)nnn1-c1cc(Cl)ccc1-2 [Compound 226] | < 100 |
| FC(F)(F)c1ccc(-c2coc(-c3ncn4c3Cc3cnnn3-c3cc(Cl)ccc3-4)n2)cc1 [Compound 386] | > 1000 |
| Cc1noc(-c2ncn3c2Cc2c(Cc4ccccc4)nnn2-c2cc(F)ccc2-3)n1 [Compound 109] | < 100 |
| CCN(CC)Cc1nnn2c1Cc1c(C#N)ncn1-c1ccc(OC)cc1-2 [Compound 252] | > 1000 |
| COCc1nnc2n1Cc1c(C#Cc3ccccc3C)ncn1-c1ccc(Cl)cc1-2 [Compound 293] | < 100 |
| COCc1nnc2n1Cc1c(C3=N[C@H](C)CO3)ncn1-c1ccc(Cl)cc1-2 [Compound 282] | < 100 |
| COCc1nnc2n1Cc1c(-c3nc(C)no3)ncn1-c1ccc(OC)cc1-2 [Compound 128] | < 100 |
| Cc1nnn2c1Cc1c(-c3ncon3)ncn1-c1ccc(F)cc1-2 [Compound 151] | < 100 |
| CCOCc1nnc2n1Cc1c(-c3ncco3)ncn1-c1ccc(Cl)cc1-2 [Compound 341] | < 100 |
| CCOC(=O)c1ncn2c1Cc1c(Cc3ccc(C)cc3)nnn1-c1cc(F)ccc1-2 [Compound 44] | < 100 |
| CCOC(=O)c1ncn2c1Cc1c(CN(C)Cc3ccccc3)nnn1-c1cc(OC)ccc1-2 [Compound 51] | < 100 |
| CCC(=O)c1ncn2c1Cc1c(C)nnn1-c1ccccc1-2 [Compound 125] | 100 to 1000 |
| CC(C)C#Cc1ccc2c(c1)-n1nncc1Cc1c(Br)ncn1-2 [Compound 454] | < 100 |
| CCOC(=O)c1ncn2c1Cc1c(COc3ccc(C)cc3C)nnn1-c1cc(OC)ccc1-2 [Compound 12] | < 100 |

| Compound | Ki [nM] |
| --- | --- |
| CC(C)c1noc(-c2ncn3c2Cn2c(COc4ccccc4)nnc2-c2cc(F)ccc2-3)n1 [Compound 141] | 100 to 1000 |
| CCc1nc(-c2ncn3c2Cc2c(C)nnn2-c2cc(F)ccc2-3)no1 [Compound 155] | < 100 |
| COCc1nnc2n1Cc1c(C3=N[C@@H](c4ccc(C(F)(F)F)cc4)CO3)ncn1-c1ccc(Cl)cc1-2 [Compound 337] | < 100 |
| CC1(C)COC(c2ncn3c2Cc2cnnn2-c2cc(Cl)ccc2-3)=N1 [Compound 364] | < 100 |
| COc1ccc2c(c1)-n1nncc1Cc1c(C3=N[C@@H](c4cc(F)ccc4F)CO3)ncn1-2 [Compound 369] | < 100 |
| CCc1nc(-c2ncn3c2Cn2c(COc4ccccc4)nnc2-c2cc(F)ccc2-3)no1 [Compound 158] | < 100 |
| Cc1nnn2c1Cc1c(C#N)ncn1-c1ccccc1-2 [Compound 115] | 100 to 1000 |
| CCOC(=O)c1ncn2c1Cc1c(Cc3ccc(Cl)cc3)nnn1-c1ccccc1-2 [Compound 47] | < 100 |
| Cc1noc(-c2ncn3c2Cc2cnnn2-c2cc(Cl)ccc2-3)n1 [Compound 425] | < 100 |
| COc1ccc2c(c1)-c1nnc(COc3ccccc3)n1Cc1c(C(F)F)ncn1-2 [Compound 124] | 100 to 1000 |
| Cc1nnn2c1Cc1c(C(=O)OCC(C)(C)C)ncn1-c1ccc(F)cc1-2 [Compound 113] | 100 to 1000 |
| CC(C)c1noc(-c2ncn3c2Cc2cnnn2-c2cc(Cl)ccc2-3)n1 [Compound 426] | < 100 |
| COCc1nnc2n1Cc1c(C3=N[C@H](c4ccccc4)CO3)ncn1-c1ccc(OC)cc1-2 [Compound 340] | < 100 |
| CCOC(=O)c1ncn2c1Cc1c(Cc3ccc(F)cc3)nnn1-c1cc(F)ccc1-2 [Compound 46] | < 100 |
| COCc1nnc2n1Cc1c(C3=N[C@@H](CC4CCCCC4)CO3)ncn1-c1ccc(Cl)cc1-2 [Compound 266] | 100 to 1000 |
| CCOC(=O)c1ncn2c1Cc1c(Cc3ccccc3)cnn1-c1cc(OC)ccc1-2 [Compound 8] | < 100 |
| CC(C)C#Cc1ccc2c(c1)-n1nncc1Cc1c(C#CC(C)C)ncn1-2 [Compound 453] | 100 to 1000 |
| COc1ccc2c(c1)-n1nncc1Cc1c(C#Cc3cccnc3)ncn1-2 [Compound 407] | < 100 |
| COCc1nnc2n1Cc1c(-c3nc(C(C)C)no3)ncn1-c1ccc(Cl)cc1-2 [Compound 206] | < 100 |
| C#Cc1ncn2c1Cc1cnnn1-c1cc(OC)ccc1-2 [Compound 403] | < 100 |
| COc1ccc2c(c1)-n1nncc1Cc1c(C3=N[C@@H](c4ccccc4C)CO3)ncn1-2 [Compound 373] | < 100 |
| CC(C)OCc1nnc2n1Cc1c(C3=N[C@H](c4ccccc4)CO3)ncn1-c1ccc(Cl)cc1-2 [Compound 268] | < 100 |
| COCc1nnc2n1Cc1c(C3=N[C@@H](C)CO3)ncn1-c1ccc(Cl)cc1-2 [Compound 283] | 100 to 1000 |

| Compound | Ki [nM] |
| --- | --- |
| Cc1nnn2c1Cc1c(-c3cnn(C)c3)ncn1-c1ccc(F)cc1-2 [Compound 152] | > 1000 |
| CCOC(=O)c1ncn2c1Cn1c(COc3ccc(F)cc3)nnc1-c1cc(OC)ccc1-2 [Compound 56] | < 100 |
| Cc1noc(-c2ncn3c2Cn2c(COc4ccccc4)nnc2-c2cc(F)ccc2-3)n1 [Compound 138] | 100 to 1000 |
| COc1ccc2c(c1)-n1nncc1Cc1c(C3=N[C@@H](c4ccc(F)c(C(F)(F)F)c4)CO3)ncn1-2 [Compound 375] | < 100 |
| COCc1nnc2n1Cc1c(C3=NCCO3)ncn1-c1ccc(C(F)(F)F)cc1-2 [Compound 470] | 100 to 1000 |
| COc1ccc2c(c1)-n1nncc1Cc1c(-c3nc(-c4ccc(F)c(C(F)(F)F)c4)co3)ncn1-2 [Compound 392] | 100 to 1000 |
| COCc1nnc2n1Cc1c(-c3ncco3)ncn1-c1ccc(OC(F)(F)F)cc1-2 [Compound 467] | < 100 |
| CCOCc1nnc2n1Cc1c(-c3noc(C(C)C)n3)ncn1-c1ccc(F)cc1-2 [Compound 187] | < 100 |
| COCc1nnn2c1Cc1c(C3=N[C@@H](Cc4ccccc4)CO3)ncn1-c1ccc(Cl)cc1-2 [Compound 299] | 100 to 1000 |
| CCOCc1nnc2n1Cc1c(C3=N[C@H](c4ccccc4)CO3)ncn1-c1ccc(Cl)cc1-2 [Compound 271] | < 100 |
| CC(C)c1nc(-c2ncn3c2Cc2c(C(=O)c4ccc(F)cc4)nnn2-c2ccc(F)cc2-3)no1 [Compound 230] | < 100 |
| N#Cc1ncn2c1Cn1c(COc3ccccc3)nnc1-c1cc(F)ccc1-2 [Compound 157] | < 100 |
| COc1ccc2c(c1)-n1nncc1Cc1c(-c3ncco3)ncn1-2 [Compound 344] | < 100 |
| Cc1coc(-c2ncn3c2Cn2c(COCC(F)(F)F)nnc2-c2cc(Cl)ccc2-3)n1 [Compound 312] | 100 to 1000 |
| CC(C)OCc1nnc2n1Cc1c(C3=N[C@@H](c4ccccc4F)CO3)ncn1-c1ccc(Cl)cc1-2 [Compound 321] | 100 to 1000 |
| FC(F)(F)COCc1nnc2n1Cc1c(-c3nc(-c4ccccc4)co3)ncn1-c1ccc(Cl)cc1-2 [Compound 313] | < 100 |
| CCC#Cc1ncn2c1Cn1c(COC)nnc1-c1cc(Cl)ccc1-2 [Compound 345] | < 100 |
| CCOC(=O)c1ncn2c1Cc1c(C)cnn1-c1cc(OC)ccc1-2 [Compound 7] | < 100 |
| Cc1nnn2c1Cc1c(C#N)ncn1-c1ccc(F)cc1-2 [Compound 116] | > 1000 |
| COCc1nnc2n1Cc1c(-c3nc4ccccc4o3)ncn1-c1ccc(Cl)cc1-2 [Compound 348] | 100 to 1000 |
| COc1ccc2c(c1)-n1nnc(Cc3ccccc3)c1Cc1c(C#N)ncn1-2 [Compound 207] | < 100 |

Same assay, conditions: inhibition of [3H]Ro15-1788 binding; reported as ranges

| Compound | Ki [nM] |
| --- | --- |
| COCc1nnc2n1Cc1c(COc3ccc(F)cc3)ncn1-c1ccc(Cl)cc1-2 [Compound 435] | > 1000 |
